Assay results from PubChem BioAssay AID248 (DTP/NCI, 2004).
Toxic doses and inconclusive results are not listed. Cut-off read from the data, not from the text of the source: active = T/C of 150% or more; inactive = T/C below 125%.

System: L1210 leukemia ip in BDF1 mice, survival T/C
Test: NCI In Vivo Anticancer Drug Screen. Data for tumor model L1210 Leukemia (intraperitoneal) in B6D2F1 (BDF1) mice
Conditions: endpoint: mean survival time, higher = longer survival
Procedure, shortened: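 In this screen, tumor-bearing mice given compound are compared to those given vehicle, and their survival values are reported as a treated-to-control quotient.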

[1] = dose: 75.0 mg/kg/injection, schedule: Q01DX001 (ip), vehicle: other
[2] = dose: 150.0 mg/kg/injection, schedule: Q01DX001 (ip), vehicle: other
[3] = dose: 100.0 mg/kg/injection, schedule: Q04DX002 (ip), vehicle: Klucel (hydroxypropylcellulose) (HPC)
[4] = dose: 200.0 mg/kg/injection, schedule: Q04DX002 (ip), vehicle: Klucel (hydroxypropylcellulose) (HPC)
[5] = dose: 100.0 mg/kg/injection, schedule: Q04DX003 (ip), vehicle: saline
[6] = dose: 200.0 mg/kg/injection, schedule: Q04DX003 (ip), vehicle: saline
[7] = dose: 400.0 mg/kg/injection, schedule: Q04DX003 (ip), vehicle: saline
[8] = dose: 100.0 mg/kg/injection, schedule: Q01DX001 (ip), vehicle: saline
[9] = dose: 200.0 mg/kg/injection, schedule: Q01DX001 (ip), vehicle: saline
[10] = dose: 400.0 mg/kg/injection, schedule: Q01DX001 (ip), vehicle: saline
[11] = dose: 12.5 mg/kg/injection, schedule: Q01DX009 (ip), vehicle: Klucel (hydroxypropylcellulose) (HPC)
[12] = dose: 25.0 mg/kg/injection, schedule: Q01DX009 (ip), vehicle: Klucel (hydroxypropylcellulose) (HPC)
[13] = dose: 50.0 mg/kg/injection, schedule: Q01DX001 (ip), vehicle: saline
[14] = dose: 100.0 mg/kg/injection, schedule: Q01DX009 (ip), vehicle: saline with Tween-80
[15] = dose: 100.0 mg/kg/injection, schedule: Q04DX003 (ip), vehicle: saline with Tween-80
[16] = dose: 200.0 mg/kg/injection, schedule: Q01DX009 (ip), vehicle: saline with Tween-80
[17] = dose: 200.0 mg/kg/injection, schedule: Q04DX003 (ip), vehicle: saline with Tween-80
[18] = dose: 400.0 mg/kg/injection, schedule: Q04DX003 (ip), vehicle: saline with Tween-80
[19] = dose: 100.0 mg/kg/injection, schedule: Q01DX009 (ip), vehicle: saline
[20] = dose: 200.0 mg/kg/injection, schedule: Q01DX009 (ip), vehicle: saline

Measured: T/C

CCCCNC(=S)Nc1ccccc1
inactive: [1] 117 % of control | [2] 117 % of control | dose: 300.0 mg/kg/injection, schedule: Q01DX001 (ip), vehicle: other 102 % of control

Cc1cccc(NCC(=O)NN)c1
inactive: [3] 100 % of control | [4] 115 % of control

CC(C)NCCC#N
inactive: [5] 104 % of control | [6] 111 % of control | [7] 108 % of control

COC(=O)C1(C)COP(=O)(NC2CCCCC2)OC1 (stereo not given)
inactive: [8] 94 % of control | [9] 97 % of control | [10] 108 % of control

CS(=O)C(Cl)C(O)c1ccccc1 (stereo not given)
inactive: dose: 100.0 mg/kg/injection, schedule: Q03DX002 (ip), vehicle: saline with Tween-80 117 % of control | dose: 400.0 mg/kg/injection, schedule: Q03DX002 (ip), vehicle: saline with Tween-80 110 % of control

CCCCCCCCCCCCCCCCCCNC(=O)NCc1ccncc1
inactive: [3] 94 % of control | [4] 123 % of control | dose: 400.0 mg/kg/injection, schedule: Q04DX002 (ip), vehicle: Klucel (hydroxypropylcellulose) (HPC) 87 % of control

COc1cc(C=C(C#N)C#N)ccc1O
inactive: [11] 103 % of control | [12] 97 % of control

CC(=Nc1ccc(NC(=O)c2ccc(C(=O)Nc3ccc(N=C(C)Nc4ccccc4)cc3)cc2)cc1)Nc1ccccc1
inactive: dose: 15.0 mg/kg/injection, schedule: Q01DX Z (ip), vehicle: saline 93 % of control | dose: 30.0 mg/kg/injection, schedule: Q01DX Z (ip), vehicle: saline 92 % of control | dose: 60.0 mg/kg/injection, schedule: Q01DX Z (ip), vehicle: saline 97 % of control | dose: 120.0 mg/kg/injection, schedule: Q01DX Z (ip), vehicle: saline 93 % of control

O=C(O)c1c(O)c(Br)cc(Br)c1O
inactive: dose: 100.0 mg/kg/injection, schedule: Q01DX001 (ip), vehicle: other 109 % of control | dose: 200.0 mg/kg/injection, schedule: Q01DX001 (ip), vehicle: other 104 % of control | dose: 400.0 mg/kg/injection, schedule: Q01DX001 (ip), vehicle: other 90 % of control

CCOC(=O)N/N=C(/C)OCC
inactive: [5] 102 % of control | [6] 102 % of control

CN(C=O)c1cc([N+](=O)[O-])ccc1OCc1ccccc1
inactive: [13] 100 % of control | [8] 96 % of control | [9] 92 % of control | [10] 94 % of control

COc1ccc(CCNC(=O)CCN2C(=O)c3ccccc3C2=O)cc1OC
inactive: [14] 115 % of control | [15] 97 % of control | [16] 115 % of control | [17] 100 % of control | dose: 400.0 mg/kg/injection, schedule: Q01DX009 (ip), vehicle: saline with Tween-80 113 % of control | [18] 112 % of control

C=C1[C@@H](C)[C@H]2[C@H](Cc3ccccc3)NC(=O)[C@]23OC(=O)/C=C/[C@H](O)CCC[C@@H](C)C/C=C/[C@H]3[C@@H]1O
inactive: dose: 4.0 mg/kg/injection, schedule: Q04DX002 (ip), vehicle: saline 112 % of control | dose: 8.0 mg/kg/injection, schedule: Q04DX002 (ip), vehicle: saline 98 % of control | dose: 16.0 mg/kg/injection, schedule: Q04DX002 (ip), vehicle: saline 109 % of control | dose: 32.0 mg/kg/injection, schedule: Q04DX002 (ip), vehicle: saline 91 % of control

CCCC[Si](Cl)(CCCC)CCCC
inactive: dose: 50.0 mg/kg/injection, schedule: Q01DX009 (ip), vehicle: saline 90 % of control | [8] 95 % of control | [19] 92 % of control | [9] 108 % of control | [20] 90 % of control | [10] 90 % of control

CC(C(=O)O)C1(O)CCCCC1 (stereo not given)
inactive: dose: 5.0 mg/kg/injection, schedule: Q04DX003 (ip), vehicle: saline with Tween-80 96 % of control | dose: 10.0 mg/kg/injection, schedule: Q04DX003 (ip), vehicle: saline with Tween-80 89 % of control | dose: 20.0 mg/kg/injection, schedule: Q04DX003 (ip), vehicle: saline with Tween-80 87 % of control

CCNCC#CCNCC
inactive: [19] 96 % of control | [5] 96 % of control | [20] 107 % of control | [6] 98 % of control | [7] 99 % of control

COC(=O)c1cc([N+](=O)[O-])c(Cl)c([N+](=O)[O-])c1
inactive: [11] 98 % of control | [12] 87 % of control | dose: 100.0 mg/kg/injection, schedule: Q04DX003 (ip), vehicle: Klucel (hydroxypropylcellulose) (HPC) 89 % of control

COC(=O)CC(O)(CC(=O)OC)C(=O)OC
inactive: dose: 100.0 mg/kg/injection, schedule: Q01DX009 (ip), vehicle: Klucel (hydroxypropylcellulose) (HPC) 93 % of control | dose: 200.0 mg/kg/injection, schedule: Q01DX009 (ip), vehicle: Klucel (hydroxypropylcellulose) (HPC) 104 % of control | dose: 400.0 mg/kg/injection, schedule: Q01DX009 (ip), vehicle: Klucel (hydroxypropylcellulose) (HPC) 93 % of control

COC1C=CC=CC=C1
inactive: dose: 15.0 mg/kg/injection, schedule: Q01DX009 (ip), vehicle: saline with Tween-80 108 % of control | dose: 30.0 mg/kg/injection, schedule: Q01DX009 (ip), vehicle: saline with Tween-80 113 % of control | dose: 60.0 mg/kg/injection, schedule: Q01DX009 (ip), vehicle: saline with Tween-80 103 % of control

CNC(=O)O/N=C/c1cccc(/C=N/OC(=O)NC)c1
inactive: [15] 97 % of control | [17] 97 % of control | [18] 103 % of control

CN(C)Cc1ccncc1
inactive: [13] 101 % of control | dose: 50.0 mg/kg/injection, schedule: Q01DX009 (ip), vehicle: saline with Tween-80 93 % of control | dose: 50.0 mg/kg/injection, schedule: Q04DX003 (ip), vehicle: saline with Tween-80 92 % of control | [8] 101 % of control | [14] 101 % of control | [15] 92 % of control | [9] 101 % of control | [16] 96 % of control | [17] 95 % of control

CC1(COC(=O)Nc2cccc3ccccc23)CC2C=CC1C2 (stereo not given)
inactive: dose: 75.0 mg/kg/injection, schedule: Q01DX001 (ip), vehicle: saline with Tween-80 96 % of control | dose: 150.0 mg/kg/injection, schedule: Q01DX001 (ip), vehicle: saline with Tween-80 91 % of control | dose: 300.0 mg/kg/injection, schedule: Q01DX001 (ip), vehicle: saline with Tween-80 88 % of control

CN1CCN(C(CO)Cc2ccccc2)CC1 (stereo not given)
inactive: [8] 98 % of control | [9] 104 % of control

Cc1ccc(S(=O)(=O)N=Nc2c(O)[nH]c3ccccc23)cc1
inactive: dose: 75.0 mg/kg/injection, schedule: Q04DX002 (ip), vehicle: gum acacia 93 % of control | dose: 150.0 mg/kg/injection, schedule: Q04DX002 (ip), vehicle: gum acacia 93 % of control | dose: 300.0 mg/kg/injection, schedule: Q04DX002 (ip), vehicle: gum acacia 100 % of control

COC(=O)C1CCCN(C)C1c1c[nH]c2ccccc12 (stereo not given)
inactive: [1] 90 % of control | [2] 106 % of control

CC(=O)NCCNC(C)=O
inactive: [13] 102 % of control | [8] 108 % of control | [9] 117 % of control | [10] 96 % of control
